{
  "source": "patent US20240115554A1",
  "about": "“METHODS FOR TREATING OBSTRUCTIVE HYPERTROPHIC CARDIOMYOPATHY” (Cytokinetics, Incorporated, priority 2022, published 2024)",
  "format_in_all_cases": "in vivo, human",
  "key": {"[1]": {"tested_on": "healthy adults", "experiment": "Phase 1 echocardiography pharmacodynamics (LVEF)", "description": "Echocardiography. For PD assessments of LVEF, echocardiograms for the SAD and MAD cohorts were interpreted by the echocardiography core laboratory and used for all data analysis and dose level review decisions while immediate local interpretation of the echocardiograms was performed for safety monitoring. […] Echocardiograms on day 3 (48 h after dosing) were obtained only if the 24 h LVEF had not returned to near or above baseline, as determined by the investigator. In the MAD cohorts, echocardiograms were obtained on day −1, pre-dose on day 1, and at 1.5 h post dose on days 2, 4, and 9, and at 1.5, 24, and 72 h post dose on day 14 (for the 5-mg and 10-mg cohorts) or on day 17 (for the 7.5-mg cohort). Echocardiograms were obtained 3 days after the last dose (on day 17 or 20) only if the participant's prior LVEF was not near or above baseline, as determined by the investigator. […] Descriptive statistics of the echocardiographic parameters were generated using SAS® Version 9.3 or higher. Dose-response analysis was performed using analysis of covariance (ANCOVA) to identify the least-squares mean difference (aficamten minus placebo). To analyze the impact of drug dose on echocardiographic parameters in the SAD and MAD cohorts, an inferential analysis was conducted on the PD analysis set using linear mixed models for repeated-measures analysis of covariance (ANCOVA). The ANCOVA used baseline value as a covariate, included treatment, time-point, and time-point-by-treatment interaction as fixed effects, and change from baseline as the dependent variable. The unstructured variance-covariance structure was used, and the model accounted for the time-point repeated measures. The ANCOVA analysis was conducted separately for each study part and for each PD parameter. The least-squares means, the difference in least squares means (active minus placebo), and the associated 2-sided 95% CIs were presented for each comparison. Analyses of concentration ‘bin’ and exposure-response were also performed using ANCOVA. SAS® PROC MIXED was used for all comparative analyses. […] A concentration bin ANCOVA was conducted using linear mixed models for repeated-measures analyses with concentration bin group as a fixed effect, baseline PD parameters as a covariate, change from baseline as the dependent variable, and a random intercept to adjust for the repeated measures. The unstructured variance-covariance structure was used. […] The ANCOVA compared the change in PD parameters between each bin versus the pooled placebo group. The least-squares means, the difference in least squares means (bin group minus placebo), and the associated 2-sided 95% CIs were presented for each comparison. The ANCOVA analysis was conducted separately for each study part. For all time-points at which both PK data and PD measures were available, the time-points were pooled for the analysis. […] From least to greatest, the data were then divided into 5 groups of observations (‘bins’), each consisting of 20% of the data points. Each bin was treated as a separate group. […] The above analysis was then repeated using concentration as a continuous variable to estimate the exposure-response trend. Both a random intercept effect and a random concentration effect were added to the ANCOVA. The estimate of the concentration slope, with corresponding 2-sided 95% CIs, and the ANCOVA analyses were presented for each study part."}, "[2]": {"tested_on": "patients with symptomatic oHCM", "experiment": "Open-label extension: cardiac biomarkers (NT-proBNP, hs-cTnI)", "settings": "Week 48", "description": "At Weeks 4, 6, 12, and every 12 weeks thereafter, each patient has an echocardiogram or truncated echocardiogram following administration of their dose (a truncated echocardiogram at weeks 4 and 6; and an echocardiogram at week 12 and every 12 weeks thereafter) to determine whether additional dose titration is needed (see Table 21 and Table 22). Patient reported outcomes, laboratory assessments, measurements of NT-proBNP, hs-cTnI, and other biomarkers are performed at week 12 and every 12 weeks thereafter. Ambulatory cardiac monitoring is performed on weeks 48, 96, 144, 192 and 240 Cardiac magnetic resonance is monitored at weeks 48, 144 and 240. If a patient develops an LVEF <40% after the Week 2 visit, a repeat echocardiogram may be performed to confirm the initial finding (preferably within 24 hours). If the echocardiography findings are confirmed, the patient will undergo a ≥2-day drug holiday."}, "[3]": {"tested_on": "patients with symptomatic oHCM", "experiment": "Open-label extension: global longitudinal strain (GLS) by echocardiography", "settings": "baseline −13.9%±3.2", "description": "GLS analysis was performed using a vendor-neutral analysis package (TOMTEC® Imaging Systems)."}, "[4]": {"settings": "SAD 50 mg (n = 11), change from baseline at […]"}},
  "note": "Values joined by “and” are separate entries in the source; they are usually repeats but may differ in a detail not shown here. Equal values may be shown once.",
  "data": [
    {"smiles": "CCc1nc(-c2ccc3c(c2)CC[C@H]3NC(=O)c2cnn(C)c2)no1", "note": "[aficamten, (R)—N-(5-(5-ethyl-1,2,4-oxadiazol-3-yl)-2,3-dihydro-1H-inden-1-yl)-1-methyl-1H-pyrazole-4-carboxamide]", "values": [
      {"measurement": "plasma aficamten concentration with minimal suppression of LVEF in most participants", "setting": "[1]; MAD cohorts", "result": "< 180", "unit": "ng/mL"},
      {"measurement": "time within which LVEF returned to baseline in participants whose LVEF fell below 50%", "setting": "[1]; Phase 1", "result": "≤ 24", "unit": "h"},
      {"measurement": "E, Mean", "setting": "[1]; SAD 50 mg (n = 11), […]", "result": 64, "unit": "cm/s"},
      {"measurement": "A, CFB Mean", "setting": "[1]; [4]", "result": 2.5, "unit": "cm/s"},
      {"measurement": "E, CFB Mean", "setting": "[1]; [4]", "result": -2.7, "unit": "cm/s"},
      {"measurement": "Heart rate, CFB Mean", "setting": "[1]; [4]", "result": 0.5, "unit": "bpm"},
      {"measurement": "IVCT, CFB Mean", "setting": "[1]; [4]", "result": 0.4, "unit": "ms"},
      {"measurement": "IVRT, CFB Mean", "setting": "[1]; [4]", "result": 0.5, "unit": "ms"},
      {"measurement": "LAV, CFB Mean", "setting": "[1]; [4]", "result": 0, "unit": "mL"},
      {"measurement": "LV EDV, CFB Mean", "setting": "[1]; [4]", "result": 6.6, "unit": "mL"},
      {"measurement": "LV ESV, CFB Mean", "setting": "[1]; [4]", "result": 8.1, "unit": "mL"},
      {"measurement": "LV ET, CFB Mean", "setting": "[1]; [4]", "result": 1.9, "unit": "ms"},
      {"measurement": "LV SV, CFB Mean", "setting": "[1]; [4]", "result": -6.2, "unit": "mL"},
      {"measurement": "LVEF, CFB Mean", "setting": "[1]; [4]", "result": "−5.8", "unit": "%"},
      {"measurement": "e′ lateral, CFB Mean", "setting": "[1]; [4]", "result": -1.3, "unit": "cm/s"},
      {"measurement": "participants with absolute reduction in LVEF of ≥5% from baseline", "setting": "[1]; SAD 1-, 10-, or 25-mg cohorts", "result": "no participants"},
      {"measurement": "participants with reduction in LVEF to <50%", "setting": "[1]; SAD 50-mg cohort (2 of 11)", "result": 18, "unit": "%"},
      {"measurement": "LVEF of the participants with LVEF <50%", "setting": "[1]; SAD 50-mg cohort, 2 participants, core laboratory assessment", "result": "48.2% and 45.5%"},
      {"measurement": "mean maximum reduction in LVEF", "setting": "[1]; SAD 50-mg group, […] post dose", "result": 5.8, "unit": "%"},
      {"measurement": "participants with reduction in LVEF to <50%", "setting": "[1]; SAD 75-mg cohort (1 of 1)", "result": 100, "unit": "%"},
      {"measurement": "relationship of plasma concentration to change in LVEF", "setting": "[1]; SAD cohorts", "result": "trend toward a decrease in LVEF"},
      {"measurement": "participants with LVEF <45%", "setting": "[1]; SAD cohorts, core laboratory", "result": "Only the participant in the 75-mg cohort experienced LVEF <45%"},
      {"measurement": "reduction in LVEF to <50%", "setting": "[1]; any of the MAD cohorts, core laboratory assessment", "result": "not observed"},
      {"measurement": "decrease in mean LVEF from baseline (least-squares mean difference)", "setting": "[1]; single 50-mg dose, […] post dose", "result": 5.5, "unit": "%"},
      {"measurement": "LVEF after reduction", "setting": "[1]; single dose of 75 mg, 1 participant, approximately […] after dosing", "result": 34.1, "unit": "%"},
      {"measurement": "reduction in LVEF", "setting": "[1]; single participant, 75 mg, […] post dose", "result": 31.5, "unit": "%"},
      {"measurement": "NT pro-BNP reduction from baseline", "setting": "[2]", "result": 70, "unit": "%"},
      {"measurement": "GLS", "setting": "[3]; week 12 (n=27)", "result": "−14.3±3.0", "unit": "%"},
      {"measurement": "GLS", "setting": "[3]; week 36-48 (n=27)", "result": "−14.9", "unit": "%"}
    ]}
  ]
}
